Values of other authors in paper PMC9795861, “Inclusion complexes of the steroid hormones 17β-estradiol and progesterone with β- and γ-cyclodextrin hosts: syntheses, X-ray structures, thermal analyses and API solubility enhancements” (Beilstein Journal of Organic Chemistry, 2022).
Where two headings read alike, the source gives them in different places.

How the values were obtained:
[1] = set-up: method as in earlier work

| aqueous solubility (at 25 °C, pure progesterone, ref 6-8 (b3)) | aqueous solubility (at 27 °C, ethinylestradiol) | oral bioavailability relative to that of BES [1] | SMILES |
| --- | --- | --- | --- |
| 8.81 × 10^−3 mg·cm^−3 |  |  | CC(=O)[C@H]1CC[C@H]2[C@@H]3CCC4=CC(=O)CC[C@]4(C)[C@H]3CC[C@]12C [progesterone] |
|  | 11.3 × 10^−3 mg·cm^−3 | significantly higher | C#C[C@]1(O)CC[C@H]2[C@@H]3CCc4cc(O)ccc4[C@H]3CC[C@@]21C [ethinylestradiol] |
